# Tested on: stably HCV RNA-replicating cell line, AVA5 (genotype 1b, subgenomic replicon)
# Assay: HCV replicon assay (intracellular HCV RNA levels by blot hybridization, normalized to β-actin RNA)
# Assay type: cell-based
# Settings: Hepatitis C virus; AVA5 cells, HCV genotype 1b subgenomic replicon; compounds added daily for three days; HCV RNA assessed 72 hours after treatment; read-out: Activity (EC50)
# Procedure: Antiviral activity of test compounds was assessed (Okuse, et al., Antivir. Res. 2005 65:23) in the stably HCV RNA-replicating cell line, AVA5 (genotype 1b, subgenomic replicon, Blight, et al., Sci. 2000 290:1972). Compounds were added to dividing cultures daily for three days. […] Intracellular HCV RNA levels and cytotoxicity were assessed 72 hours after treatment.
# Quadruplicate cultures for HCV RNA levels and cytoxicity (on 96-well plates) were used. A total of 12 untreated control cultures, and triplicate cultures treated with α-interferon (concentrations of: 10 IU/mL, 3.3 IU/mL, 1.1 IU/mL and 0.37 IU/mL) and 2′C-Me-C (concentrations of: 30 μM, 10 μM, 3.3 μM and 1.1 μM) served as assay controls.
# Intracellular HCV RNA levels were measured using a conventional blot hybridization method, in which HCV RNA levels are normalized to the levels of β-actin RNA in each individual culture (Okuse, et al., Antivir. Res. 2005 65:23). Cytotoxicity was measured using an established neutral red dye uptake assay (Korba and Gerin, Antivir. Res. 1992 19:55; Okuse, et al., Antivir. Res. 2005 65:23). HCV RNA levels in the treated cultures are expressed as a percentage of the mean levels of RNA detected in untreated cultures. The absorbance of the internalized dye at […] (A510) was used for quantitative analysis.
# Compounds were dissolved in 100% tissue culture grade DMSO (Sigma, Inc.) at 10 mM. Aliquots of test compounds sufficient for one daily treatment were made in individual tubes and all material was stored at −20° C. For the test, the compounds were suspended into culture medium at room temperature, and immediately added to the cell cultures. Compounds were analyzed separately in two groups with separate assay controls. The concentrations of the test compounds were run at concentrations of 10 μM, 3.3 μM, 1.1 μM and 0.37 μM. CC50, EC50 and EC90 were determined using the concentration response curve.
row,Structure (SMILES),EC50 [µM]
1,C[C@@H](O)[C@H]1O[C@@H](n2ccc(N)nc2=O)C(F)(F)[C@@H]1O,< 5
2,CC(=O)Nc1ccn([C@@H]2O[C@H]([C@H](C)OC(C)=O)[C@@H](OC(C)=O)C2(F)F)c(=O)n1,< 5
3,CCC(=O)O[C@@H](C)[C@H]1O[C@@H](n2ccc(N)nc2=O)C(F)(F)[C@@H]1OC(=O)CC,< 5
4,C[C@H](O)[C@H]1O[C@@H](n2ccc(N)nc2=O)C(F)(F)[C@@H]1O,< 5
5,CC(=O)O[C@@H](C)[C@H]1O[C@@H](n2ccc(N)nc2=O)C(F)(F)[C@@H]1O,< 5
6,C[C@H](O)[C@H]1O[C@@H](n2ccc(N)nc2=O)[C@H](F)[C@@H]1O,< 30
7,C[C@H](O)[C@H]1O[C@@H](n2ccc(N)nc2=O)[C@@H](O)[C@@H]1O,< 200
8,C[C@@H](O)[C@H]1O[C@@H](n2ccc(N)nc2=O)[C@@H](O)[C@@H]1O,< 5
9,CCC(=O)O[C@@H](C)[C@H]1O[C@@H](n2ccc(N)nc2=O)C(F)(F)[C@@H]1O,< 5
10,C[C@@H](O)[C@H]1O[C@@H](n2cnc3c(N)ncnc32)[C@](C)(O)[C@@H]1O,< 30
11,CC(OC(=O)c1ccccc1)[C@H]1O[C@@H](N2C=CC(N)NC2=O)[C@](C)(OC(=O)c2ccccc2)[C@@H]1OC(=O)c1ccccc1 (stereo partly drawn),< 30
12,CC(=O)O[C@@H](C)[C@H]1O[C@@H](n2ccc(N)nc2=O)C(F)(F)[C@@H]1OC(C)=O,< 5
13,COC(=O)[C@@H](C)N[P@](=O)(Oc1ccccc1)O[C@H](C)[C@H]1O[C@@H](n2cnc3c(N)ncnc32)[C@H](O)[C@@H]1O,< 5
14,CC(O)[C@H]1O[C@@H](n2cnc3c(=O)[nH]c(N)nc32)[C@H](O)[C@@H]1O (stereo partly drawn),< 200
15,CC(O)[C@H]1O[C@@H](n2ccc(N)nc2=O)[C@@H](F)[C@@H]1O (stereo partly drawn),< 30
16,C[C@@H](O)[C@H]1O[C@@H](n2ccc3c(N)ncnc32)[C@H](O)[C@@H]1O,< 30

# Same assay, conditions: Hepatitis C virus; AVA5 cells, HCV genotype 1b subgenomic replicon; compounds added daily for three days; HCV RNA assessed 72 hours after treatment; read-out: EC50
row,Structure (SMILES),EC50 [µM]
1,"CO[C@@H]1[C@H](O)[C@@H](CO)O[C@H]1n1ccc(N)nc1=O [Compound 8a, 2′-O-methylcytidine, reference compound]",1 to 10
2,"C[C@H](O)C1O[C@@H](n2cnc3c(N)ncnc32)[C@](C)(O)[C@@H]1O (stereo in doubt) [Compound 9, 2′,5′-C-dimethyladenosine]",1 to 10

# — patent publication US20100249068A1, “S[…] NUCLEOTIDE ANALOGS” (Alios BioPharma, Inc., priority 2009, published 2010)
